What all share (format): biochemical
Test [1] deals with T1, human full-length PL (pancreatic lipase) (Homo sapiens, UniProt P16233).
T1 construct: We have cloned the human full-length EL, LPL, HL and PL; made in house; host or cells: HEK-293, transient transfection
T1 sequence (P16233 17-465): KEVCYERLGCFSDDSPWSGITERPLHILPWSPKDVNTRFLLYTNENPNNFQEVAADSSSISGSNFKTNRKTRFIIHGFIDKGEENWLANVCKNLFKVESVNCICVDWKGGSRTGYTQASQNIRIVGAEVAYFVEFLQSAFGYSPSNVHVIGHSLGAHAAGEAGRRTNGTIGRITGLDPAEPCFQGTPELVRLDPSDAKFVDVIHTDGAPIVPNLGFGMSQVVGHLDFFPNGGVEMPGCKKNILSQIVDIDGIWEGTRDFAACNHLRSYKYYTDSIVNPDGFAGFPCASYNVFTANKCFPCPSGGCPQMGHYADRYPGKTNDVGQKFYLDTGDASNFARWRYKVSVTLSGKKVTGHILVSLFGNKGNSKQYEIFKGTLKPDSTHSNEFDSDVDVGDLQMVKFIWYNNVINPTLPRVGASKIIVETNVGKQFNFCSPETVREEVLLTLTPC
Kind of test: PL selectivity assay (phospholipase kit, resorufinoleate substrate). Particulars: even at 200 uM compound concentration. The protocol: (§1) Preparation of constructs: We have cloned the human full-length EL, LPL, HL and PL. The cDNA encoding the EL, LPL, HL and PL sequence was cloned by PCR and subcloned into a mammalian expression vector containing the cytomegalovirus promoter-enhancer. The constructs were confirmed by sequence analysis.
(§2) Expression of EL, LPL, HL and PL in mammalian cells: The above constructs were used to transfect HEK-293 cells. The cells were seeded into T75 plates in a DMEM solution containing 10% Fetal Bovine Serum media and incubated overnight at 37° C. Cells were transiently transfected with various cDNA constructs using the Lipofectamine-LTX as described by the manufacturer (Invitrogen). After transfection, cells were then incubated for an additional 48 hours at 37° C. before being analyzed for expression. After 48 hours of incubation, following transfection, cells were collected for analysis by western blots for the expression of EL, LPL, HL and PL.
(§3) LPL, PL and HL selectivity assays: For measuring LPL, PL and HL activity, we used the commercially available phospholipase kit (MGT). The activity of the substrate, resorufinoleate is quite good for both phospholipase A1 and phospholipase A2, and therefore is ideal for LPL, PL and HL. Since the substrate is quite general for other lipases such as triacylglycerol lipases or lipoprotein lipases, we utilized our recombinant system and cell specific expression system to achieve the desired specificity. The LPL, PL and HL enzyme activity measurements were conducted using a 96-well microtiter plate. All appropriate controls were implemented.
(§4) Experiments were also performed to determine the specificity of our best compounds against the most closely related homologues, LPL, PL and HL.

Test [2] addresses T2, human full-length EL (endothelial lipase) (Homo sapiens, UniProt Q9Y5X9).
T2 construct: We have cloned the human full-length EL, LPL, HL and PL; made in house; host or cells: HEK-293, transient transfection; cell extracts used
T2 sequence (Q9Y5X9 21-500): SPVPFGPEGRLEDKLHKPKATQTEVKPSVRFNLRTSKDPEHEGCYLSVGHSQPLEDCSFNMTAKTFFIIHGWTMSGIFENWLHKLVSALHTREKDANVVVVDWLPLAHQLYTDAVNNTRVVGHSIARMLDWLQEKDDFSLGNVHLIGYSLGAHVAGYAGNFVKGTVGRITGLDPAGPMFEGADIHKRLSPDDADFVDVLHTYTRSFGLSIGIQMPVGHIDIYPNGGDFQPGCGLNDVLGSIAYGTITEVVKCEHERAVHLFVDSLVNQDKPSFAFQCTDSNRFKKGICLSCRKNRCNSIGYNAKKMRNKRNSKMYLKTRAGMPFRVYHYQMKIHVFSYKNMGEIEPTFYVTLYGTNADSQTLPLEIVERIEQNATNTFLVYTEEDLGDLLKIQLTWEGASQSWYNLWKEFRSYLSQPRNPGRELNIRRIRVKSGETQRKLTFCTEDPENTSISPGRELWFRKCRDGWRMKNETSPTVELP
The experiment in a line: EL inhibition assay using cell extracts of HEK293/EL transfected cells. The following applies: compound 0.001-200 μM, means of three experiments. The protocol:
as §1, §2
EL screening assay: We developed and implemented two assays (a) in assay one the HDL-C functions as a substrate for the assay. This assay measures the rate of HDL hydrolysis by EL that yields free fatty acids, which are then coupled through acyl-CoA synthetase, acyl-CoA oxidase and horseradish peroxidase to produce the fluorescent species, resorufin; (b) in assay two PED-A1, a novel fluorogenic phospholipase A1-selective substrate was used for EL measurements. […] Assay one was used for initial screening, while assay two was used for secondary screening and EL kinetics.
Characterization of the Hits: A library of compounds that modified both the urea and sulfonamide substituents on the 5-methyl furan were synthesized. The library was extensively analyzed for EL potency, and then the data was utilized to further optimize the compounds. Seven compounds were selected for potency, kinetic and selectivity confirmation.
In order to determine the Ki value, we used variable concentrations of the compound and variable substrate concentrations.

The target in test [3] is T3, human full-length LPL (lipoprotein lipase) (Homo sapiens, UniProt P06858).
T3 construct: We have cloned the human full-length EL, LPL, HL and PL; made in house; host or cells: HEK-293, transient transfection
T3 sequence (P06858 28-475): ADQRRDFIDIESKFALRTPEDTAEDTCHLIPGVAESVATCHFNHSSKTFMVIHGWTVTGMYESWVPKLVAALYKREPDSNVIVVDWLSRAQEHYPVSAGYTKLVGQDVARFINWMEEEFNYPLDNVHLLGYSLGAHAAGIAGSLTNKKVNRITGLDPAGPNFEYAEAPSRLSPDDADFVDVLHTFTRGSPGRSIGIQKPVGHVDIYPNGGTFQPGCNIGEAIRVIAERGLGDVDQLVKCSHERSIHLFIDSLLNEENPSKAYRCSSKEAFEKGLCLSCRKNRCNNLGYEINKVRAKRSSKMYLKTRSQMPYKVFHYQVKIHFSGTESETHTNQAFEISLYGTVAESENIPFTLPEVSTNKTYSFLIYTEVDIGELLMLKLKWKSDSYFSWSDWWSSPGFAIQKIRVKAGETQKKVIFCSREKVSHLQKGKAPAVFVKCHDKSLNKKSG
The experiment in a line: LPL selectivity assay (phospholipase kit, resorufinoleate substrate). The following applies: even at 200 uM compound concentration. The protocol: as §1, §2, §3, §4

For test [4], the target named is T4, human full-length HL (hepatic lipase) (Homo sapiens, UniProt P11150).
T4 construct: We have cloned the human full-length EL, LPL, HL and PL; made in house; host or cells: HEK-293, transient transfection
T4 sequence (P11150 23-499): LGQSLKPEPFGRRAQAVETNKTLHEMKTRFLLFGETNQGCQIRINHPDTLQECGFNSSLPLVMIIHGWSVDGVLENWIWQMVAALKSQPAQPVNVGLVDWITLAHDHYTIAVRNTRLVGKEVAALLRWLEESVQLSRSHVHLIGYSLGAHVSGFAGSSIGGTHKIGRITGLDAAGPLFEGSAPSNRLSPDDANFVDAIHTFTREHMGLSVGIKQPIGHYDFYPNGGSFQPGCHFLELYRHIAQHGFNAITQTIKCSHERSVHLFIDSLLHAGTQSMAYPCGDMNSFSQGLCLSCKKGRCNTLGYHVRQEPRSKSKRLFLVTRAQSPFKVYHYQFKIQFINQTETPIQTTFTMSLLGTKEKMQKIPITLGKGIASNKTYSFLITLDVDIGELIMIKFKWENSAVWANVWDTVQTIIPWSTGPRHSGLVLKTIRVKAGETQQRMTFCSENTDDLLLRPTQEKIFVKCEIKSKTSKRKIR
Kind of test: HL selectivity assay (phospholipase kit, resorufinoleate substrate). Particulars: even at 200 uM compound concentration. The protocol:
as §1, §2, §3, §4

Regarding `COC1CCN(S(=O)(=O)c2cc(NC(=O)NCc3ccccc3C(F)(F)F)c(C)o2)CC1` [SBC-140,460], the “inhibition against PL activity” value in test [1] is “no inhibition”. For the same molecule, in test [2], the IC50 was 0.019 µM. Further, the “inhibition against LPL activity” value in test [3] is recorded as “no inhibition”. Besides, the “inhibition against HL activity” value in test [4] was “no inhibition”.

With `Cc1ccccc1NC(=O)Nc1cc(S(=O)(=O)N2CCC(C(F)(F)F)CC2)oc1C` [SBC-140,466], the “inhibition against PL activity” value in test [1] is reported as “no inhibition”. This molecule also yielded an IC50 in test [2] of 0.062 µM. Moreover, in test [3], the “inhibition against LPL activity” value was “no inhibition”. Moreover, in test [4], the “inhibition against HL activity” value is given as “no inhibition”.

For `Cc1oc(S(=O)(=O)N2CCC(C(F)(F)F)CC2)cc1NC(=O)NC(c1ccccc1)C(F)(F)F` (stereo not drawn) [SBC-140,472], the “inhibition against PL activity” value in test [1] is reported as “no inhibition”. The molecule also showed an IC50 in test [2] of 0.079 µM. Also, the “inhibition against LPL activity” value in test [3] was “no inhibition”. For the same molecule, the “inhibition against HL activity” value in test [4] is recorded as “no inhibition”.

The values above are taken from patent publication US10259804B2, “Anti-endothelial lipase compounds and methods of using the same in the treatment and/or prevention of cardiovascular diseases” (Shifa Biomedical Corporation, priority 2014, dated 2019).
